48 molecules from the Kinase Knowledgebase extract (Sharma et al. 2016) can be followed below.

One assay has as its target PIK3CD (Human) (UniProt O00329). The experiment in a line: Assessment of PIK3CD Kinase Activity.
The target in the next assay is PIK3CG (human) (UniProt P48736). Kind of assay: Assessment of PIK3CG Kinase Activity.
The next assay concerns the target PIK3CB (Human) (UniProt P42338). The experiment in a line: Assessment of PIK3CB Kinase Activity.
Another assay deals with PIK3CA (human) (UniProt P42336). The experiment in a line: Assessment of PIK3CA Kinase Activity.

The structures appear in SMILES notation. pIC50: −log10 of the molar value.

PIK3CG (human), sequence (P48736 whole entry, looked up): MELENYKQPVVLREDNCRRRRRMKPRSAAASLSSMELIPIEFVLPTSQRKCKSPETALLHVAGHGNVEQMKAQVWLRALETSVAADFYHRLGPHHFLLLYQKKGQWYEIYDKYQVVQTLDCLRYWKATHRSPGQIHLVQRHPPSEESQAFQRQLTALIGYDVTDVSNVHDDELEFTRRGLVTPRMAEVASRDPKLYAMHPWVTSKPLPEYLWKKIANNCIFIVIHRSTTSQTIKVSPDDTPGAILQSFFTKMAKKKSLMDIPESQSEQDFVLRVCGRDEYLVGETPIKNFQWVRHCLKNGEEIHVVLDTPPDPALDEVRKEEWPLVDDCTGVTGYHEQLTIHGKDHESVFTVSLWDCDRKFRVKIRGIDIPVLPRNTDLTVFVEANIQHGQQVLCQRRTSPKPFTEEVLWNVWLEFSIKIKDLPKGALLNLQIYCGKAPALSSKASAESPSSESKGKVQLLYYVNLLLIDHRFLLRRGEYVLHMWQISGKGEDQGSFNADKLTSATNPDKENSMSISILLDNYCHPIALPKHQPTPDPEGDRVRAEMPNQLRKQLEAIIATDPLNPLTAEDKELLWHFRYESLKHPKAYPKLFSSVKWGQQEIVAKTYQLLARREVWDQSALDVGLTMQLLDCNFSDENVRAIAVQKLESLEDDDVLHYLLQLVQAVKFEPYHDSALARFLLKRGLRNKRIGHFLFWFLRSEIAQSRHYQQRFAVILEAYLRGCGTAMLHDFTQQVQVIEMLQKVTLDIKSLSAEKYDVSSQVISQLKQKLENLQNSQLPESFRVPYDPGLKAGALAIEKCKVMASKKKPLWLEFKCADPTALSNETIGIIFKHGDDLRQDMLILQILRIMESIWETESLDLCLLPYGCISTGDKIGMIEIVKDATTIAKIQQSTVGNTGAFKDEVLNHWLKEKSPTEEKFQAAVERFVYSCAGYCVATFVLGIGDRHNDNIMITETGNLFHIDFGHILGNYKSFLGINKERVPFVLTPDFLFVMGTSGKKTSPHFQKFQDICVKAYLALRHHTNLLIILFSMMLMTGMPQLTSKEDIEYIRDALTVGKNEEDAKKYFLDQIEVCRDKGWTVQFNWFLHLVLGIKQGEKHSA
PIK3CD (Human), sequence (O00329 whole entry, looked up): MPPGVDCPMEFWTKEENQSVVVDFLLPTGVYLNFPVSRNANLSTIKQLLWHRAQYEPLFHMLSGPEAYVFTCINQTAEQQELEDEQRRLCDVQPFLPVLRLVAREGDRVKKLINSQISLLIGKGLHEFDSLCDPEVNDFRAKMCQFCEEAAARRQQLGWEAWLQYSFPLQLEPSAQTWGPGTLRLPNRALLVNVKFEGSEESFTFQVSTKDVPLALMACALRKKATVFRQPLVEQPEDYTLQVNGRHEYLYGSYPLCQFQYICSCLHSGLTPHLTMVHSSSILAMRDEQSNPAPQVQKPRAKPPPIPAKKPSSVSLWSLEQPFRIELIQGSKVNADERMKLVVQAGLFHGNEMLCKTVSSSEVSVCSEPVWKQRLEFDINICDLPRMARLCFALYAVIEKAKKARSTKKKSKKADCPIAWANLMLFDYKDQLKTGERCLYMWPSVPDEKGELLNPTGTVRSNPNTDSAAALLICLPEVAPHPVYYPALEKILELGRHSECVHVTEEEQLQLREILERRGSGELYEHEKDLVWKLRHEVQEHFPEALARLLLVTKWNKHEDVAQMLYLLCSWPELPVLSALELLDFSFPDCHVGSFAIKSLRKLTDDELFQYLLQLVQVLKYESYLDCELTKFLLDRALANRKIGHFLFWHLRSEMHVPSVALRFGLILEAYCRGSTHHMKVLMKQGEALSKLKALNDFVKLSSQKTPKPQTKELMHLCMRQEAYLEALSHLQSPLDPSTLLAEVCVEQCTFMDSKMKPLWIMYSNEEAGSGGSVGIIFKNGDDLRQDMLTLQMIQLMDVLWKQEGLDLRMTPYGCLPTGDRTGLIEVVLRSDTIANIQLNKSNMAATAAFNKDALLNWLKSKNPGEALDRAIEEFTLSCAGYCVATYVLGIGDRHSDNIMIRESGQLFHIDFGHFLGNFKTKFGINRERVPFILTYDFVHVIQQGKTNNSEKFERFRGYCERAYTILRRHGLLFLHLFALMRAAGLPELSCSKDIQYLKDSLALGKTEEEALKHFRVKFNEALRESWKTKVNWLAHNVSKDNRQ
PIK3CB (Human), sequence (P42338 whole entry, looked up): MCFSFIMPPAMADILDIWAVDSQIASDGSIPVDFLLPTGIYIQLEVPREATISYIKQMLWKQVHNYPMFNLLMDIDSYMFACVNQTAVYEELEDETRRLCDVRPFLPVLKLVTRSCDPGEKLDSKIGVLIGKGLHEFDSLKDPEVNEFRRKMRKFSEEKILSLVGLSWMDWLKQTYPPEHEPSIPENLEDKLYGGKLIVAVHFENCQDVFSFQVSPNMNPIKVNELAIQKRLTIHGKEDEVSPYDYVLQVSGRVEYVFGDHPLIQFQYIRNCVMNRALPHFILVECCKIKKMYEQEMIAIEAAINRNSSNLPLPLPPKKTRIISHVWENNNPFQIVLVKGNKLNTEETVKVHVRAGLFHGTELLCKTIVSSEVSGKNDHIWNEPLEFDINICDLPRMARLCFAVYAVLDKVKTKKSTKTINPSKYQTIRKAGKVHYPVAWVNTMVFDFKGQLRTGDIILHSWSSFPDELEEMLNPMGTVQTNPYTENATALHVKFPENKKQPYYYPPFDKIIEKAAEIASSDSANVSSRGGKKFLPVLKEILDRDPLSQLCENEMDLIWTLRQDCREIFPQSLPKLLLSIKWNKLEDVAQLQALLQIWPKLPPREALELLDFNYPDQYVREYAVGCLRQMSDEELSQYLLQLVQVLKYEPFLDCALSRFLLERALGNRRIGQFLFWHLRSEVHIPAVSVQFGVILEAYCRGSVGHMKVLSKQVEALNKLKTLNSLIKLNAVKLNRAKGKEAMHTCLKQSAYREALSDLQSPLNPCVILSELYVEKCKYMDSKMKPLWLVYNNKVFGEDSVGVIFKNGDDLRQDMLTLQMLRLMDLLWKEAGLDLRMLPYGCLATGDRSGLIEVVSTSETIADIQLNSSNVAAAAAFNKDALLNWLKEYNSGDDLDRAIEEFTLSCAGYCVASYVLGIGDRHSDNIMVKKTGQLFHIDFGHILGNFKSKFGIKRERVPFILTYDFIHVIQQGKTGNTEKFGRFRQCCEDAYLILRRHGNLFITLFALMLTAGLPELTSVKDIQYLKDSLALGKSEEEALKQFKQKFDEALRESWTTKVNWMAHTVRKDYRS
PIK3CA (human), sequence (P42336 whole entry, looked up): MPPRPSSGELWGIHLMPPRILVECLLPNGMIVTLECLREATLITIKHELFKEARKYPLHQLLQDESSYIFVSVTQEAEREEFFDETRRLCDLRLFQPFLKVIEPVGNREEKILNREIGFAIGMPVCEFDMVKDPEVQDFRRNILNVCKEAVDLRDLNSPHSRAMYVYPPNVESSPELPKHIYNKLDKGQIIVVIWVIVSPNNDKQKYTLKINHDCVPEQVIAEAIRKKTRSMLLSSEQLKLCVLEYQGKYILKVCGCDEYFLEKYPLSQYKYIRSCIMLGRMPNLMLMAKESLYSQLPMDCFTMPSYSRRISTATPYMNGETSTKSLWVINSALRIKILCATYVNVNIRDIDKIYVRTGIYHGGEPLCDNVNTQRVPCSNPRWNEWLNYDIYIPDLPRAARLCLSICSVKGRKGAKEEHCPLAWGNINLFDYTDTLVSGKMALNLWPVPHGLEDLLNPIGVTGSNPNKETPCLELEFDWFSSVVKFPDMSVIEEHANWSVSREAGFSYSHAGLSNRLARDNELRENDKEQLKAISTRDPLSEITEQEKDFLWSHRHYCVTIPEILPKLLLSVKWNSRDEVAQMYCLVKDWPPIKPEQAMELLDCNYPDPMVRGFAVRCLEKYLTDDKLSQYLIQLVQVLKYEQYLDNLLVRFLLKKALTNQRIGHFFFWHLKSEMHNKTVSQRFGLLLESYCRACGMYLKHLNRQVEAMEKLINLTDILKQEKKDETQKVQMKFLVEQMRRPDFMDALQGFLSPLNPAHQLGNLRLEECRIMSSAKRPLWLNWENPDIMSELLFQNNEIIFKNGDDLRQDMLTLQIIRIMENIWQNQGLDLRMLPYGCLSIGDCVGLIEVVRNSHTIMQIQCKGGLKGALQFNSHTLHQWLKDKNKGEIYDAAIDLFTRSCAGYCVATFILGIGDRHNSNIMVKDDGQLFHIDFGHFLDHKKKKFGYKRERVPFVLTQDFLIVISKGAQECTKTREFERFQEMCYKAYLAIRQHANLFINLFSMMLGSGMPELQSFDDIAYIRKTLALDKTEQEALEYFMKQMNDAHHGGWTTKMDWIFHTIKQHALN

In general, pIC50 refers to the negative decadic logarithm of the IC50, by convention in mol/L. As for `C[C@H](Nc1nc(N)ncc1C#N)c1cc2cccc(-c3ccnnc3)c2c(=O)n1-c1ccccc1`, the pIC50 is more than 7.00 against PIK3CD (Human), 6.00 to 7.00 at PIK3CG (human) and less than 5.00 on PIK3CB (Human).
Consider `C[C@H](Nc1nc(N)ncc1-c1cncs1)c1cc2cccc(Cl)c2c(=O)n1-c1ccccc1`, for which the pIC50 against PIK3CD (Human) is more than 7.00; at PIK3CG (human) it was more than 7.00; against PIK3CB (Human), 6.00 to 7.00.
As for `CC(C)n1c([C@H](C)Nc2nc(N)ncc2C#N)cc2cccc(Cl)c2c1=O`, the pIC50 on PIK3CD (Human), against PIK3CG (human) and at PIK3CB (Human) was more than 7.00 in each case.
`C[C@H](Nc1nc(N)ncc1C(=O)N(C)C)c1cc2cccc(-c3cnn(C)c3)c2c(=O)n1-c1ccccc1`: the pIC50 against PIK3CD (Human) is more than 7.00; against PIK3CG (human), more than 7.00; on PIK3CB (Human) it was less than 5.00.
`C[C@H](Nc1nc(N)ncc1C#N)c1cc2cccc(Cl)c2c(=O)n1-c1cscn1`: the pIC50 on PIK3CD (Human), on PIK3CG (human) and against PIK3CB (Human) was more than 7.00 throughout.
As to `C[C@H](Nc1nc(N)ncc1C(=O)N(C)C)c1cc2cccc(Cl)c2c(=O)n1-c1ccccc1`, the pIC50 against PIK3CD (Human) was more than 7.00; against PIK3CG (human), more than 7.00; against PIK3CB (Human), 6.00 to 7.00.
`Cc1ncc(-c2cccc3cc([C@H](C)Nc4nc(N)ncc4C#N)n(-c4cccc(F)c4)c(=O)c23)cn1`: the results for the pIC50 on PIK3CD (Human), against PIK3CG (human) and against PIK3CB (Human) were more than 7.00, more than 7.00 and less than 5.00, respectively.
`C[C@H](Nc1nc(N)ncc1C#N)c1cc2cccc(Cl)c2c(=O)n1-c1ccc(F)cc1F`: the pIC50 was more than 7.00 on PIK3CD (Human), more than 7.00 at PIK3CG (human) and 6.00 to 7.00 against PIK3CB (Human).
`COc1cc(-c2cccc3cc([C@H](C)Nc4nc(N)ncc4-c4ccncc4)n(-c4ccccc4)c(=O)c23)ccn1`: the pIC50 at PIK3CD (Human) is more than 7.00; on PIK3CG (human) it was more than 7.00; against PIK3CB (Human), less than 5.00.
Consider `C[C@H](Nc1nc(N)ncc1C#N)c1cc2cccc(Cl)c2c(=O)n1-c1ccc(Cl)cc1`, for which the pIC50 was more than 7.00 against PIK3CD (Human), more than 7.00 against PIK3CG (human) and 6.00 to 7.00 against PIK3CB (Human).
As to `C[C@H](Nc1nc(N)ncc1-c1cscn1)c1cc2cccc(Cl)c2c(=O)n1-c1ccccc1`, the values for the pIC50 on PIK3CD (Human), against PIK3CG (human) and on PIK3CB (Human) were more than 7.00, more than 7.00 and 6.00 to 7.00, respectively.
`C[C@H](Nc1nc(N)ncc1C#N)c1cc2cccc(-c3cccc(NS(=O)(=O)N(C)C)c3)c2c(=O)n1-c1ccccc1`: the pIC50 against PIK3CD (Human) was more than 7.00; at PIK3CG (human), 6.00 to 7.00; at PIK3CB (Human), less than 5.00.
On to `Cc1csc(-c2cnc(N)nc2N[C@@H](C)c2cc3cccc(Cl)c3c(=O)n2-c2ccccc2)n1`, for which the pIC50 is more than 7.00 on PIK3CD (Human), more than 7.00 against PIK3CG (human) and 6.00 to 7.00 on PIK3CB (Human).
`C[C@H](Nc1nc(N)ncc1-c1ncco1)c1cc2cccc(Cl)c2c(=O)n1-c1ccccc1`: the results for the pIC50 on PIK3CD (Human), at PIK3CG (human) and against PIK3CB (Human) were more than 7.00, more than 7.00 and 6.00 to 7.00, respectively.
With `C[C@H](Nc1nc(N)ncc1C#N)c1cc2cccc(Cl)c2c(=O)n1-c1ccccc1`, the pIC50 at PIK3CD (Human), at PIK3CG (human) and at PIK3CB (Human) was more than 7.00 each time.
On to `CCn1c([C@H](C)Nc2nc(N)ncc2C#N)cc2cccc(Cl)c2c1=O`, for which the pIC50 against PIK3CD (Human), at PIK3CG (human) and on PIK3CB (Human) was more than 7.00 in each case.
Turning to `CCOc1ncc(-c2cnc(N)nc2N[C@@H](C)c2cc3cccc(Cl)c3c(=O)n2-c2ccccc2)s1`, the pIC50 is more than 7.00 against PIK3CD (Human), more than 7.00 against PIK3CG (human) and 6.00 to 7.00 on PIK3CB (Human).
For `C[C@H](Nc1nc(N)ncc1C#N)c1cc2cccc(-c3ccc(S(C)(=O)=O)cc3)c2c(=O)n1-c1ccccc1`, the values for the pIC50 at PIK3CD (Human), against PIK3CG (human) and at PIK3CB (Human) were more than 7.00, more than 7.00 and less than 5.00, respectively.
In the case of `C[C@H](Nc1nc(N)ncc1C#N)c1cc2cccc(-c3cccc(F)c3)c2c(=O)n1-c1ccccc1`, the pIC50 was more than 7.00 on PIK3CD (Human), more than 7.00 on PIK3CG (human) and 6.00 to 7.00 at PIK3CB (Human).
As to `COc1cc(-c2cccc3cc([C@H](C)Nc4nc(N)ncc4-c4cccnc4)n(-c4ccccc4)c(=O)c23)ccn1`, the values for the pIC50 against PIK3CD (Human), against PIK3CG (human) and against PIK3CB (Human) were 6.00 to 7.00, 6.00 to 7.00 and less than 5.00, respectively.
For the molecule `Cc1cnc(-c2cnc(N)nc2N[C@@H](C)c2cc3cccc(Cl)c3c(=O)n2-c2ccccc2)s1`, the pIC50 is 6.00 to 7.00 against PIK3CD (Human), more than 7.00 against PIK3CG (human) and less than 5.00 at PIK3CA (human).
As to `C[C@H](Nc1nc(N)ncc1C#N)c1cc2cccc(Cl)c2c(=O)n1-c1ccccc1F`, the pIC50 on PIK3CD (Human) was more than 7.00; at PIK3CG (human), more than 7.00; against PIK3CB (Human), 6.00 to 7.00.
As to `C[C@H](Nc1nc(N)ncc1C#N)c1nc2cccc(Cl)c2c(=O)n1-c1ccccc1`, the pIC50 on PIK3CD (Human) was more than 7.00; at PIK3CG (human), more than 7.00; against PIK3CB (Human), 6.00 to 7.00.
For the molecule `C[C@H](Nc1nc(N)ncc1C#N)c1cc2cccc(O)c2c(=O)n1-c1ccccc1`, the pIC50 was more than 7.00 against PIK3CD (Human), more than 7.00 against PIK3CG (human) and less than 5.00 at PIK3CA (human).
In the case of `C[C@H](Nc1nc(N)ncc1C#N)c1cc2cccc(Cl)c2c(=O)n1-c1cccc(F)c1F`, the pIC50 at PIK3CD (Human) was more than 7.00; against PIK3CG (human), more than 7.00; against PIK3CA (human), less than 5.00.
Regarding `C[C@H](Nc1nc(N)ncc1C#N)c1cc2cccc(-c3cccc(Cl)c3)c2c(=O)n1-c1ccccc1`, the pIC50 on PIK3CD (Human) is more than 7.00; against PIK3CG (human), more than 7.00; against PIK3CA (human), 6.00 to 7.00.
Take `COc1cncc(-c2cccc3nc([C@H](C)Nc4nc(N)ncc4C#N)n(-c4ccccc4)c(=O)c23)c1`: the pIC50 on PIK3CD (Human) is more than 7.00; against PIK3CG (human) it was more than 7.00; against PIK3CA (human), 6.00 to 7.00.
For `COc1cc(-c2cccc3cc([C@H](C)Nc4nc(N)ncc4C#N)n(-c4ccccc4)c(=O)c23)cnc1OC`, the pIC50 at PIK3CD (Human), on PIK3CG (human) and at PIK3CA (human) was more than 7.00 each time.
Turning to `C[C@H](Nc1nc(N)ncc1-c1ccc(O)cc1)c1cc2cccc(Cl)c2c(=O)n1-c1ccccc1`, the figures for the pIC50 against PIK3CD (Human), at PIK3CG (human) and at PIK3CA (human) were 6.00 to 7.00, more than 7.00 and less than 5.00, respectively.
For `C[C@H](Nc1nc(N)ncc1C#N)c1cc2cccc(-c3ccc(F)cc3)c2c(=O)n1-c1ccccc1`, the pIC50 on PIK3CD (Human) was more than 7.00; on PIK3CG (human) it was more than 7.00; against PIK3CA (human), 6.00 to 7.00.
For the molecule `Cc1cncc(-c2cccc3cc([C@H](C)Nc4nc(N)ncc4C#N)n(-c4cccc(F)c4)c(=O)c23)c1`, the pIC50 at PIK3CD (Human) is more than 7.00; on PIK3CG (human), more than 7.00; at PIK3CA (human), 6.00 to 7.00.
With `C[C@H](Nc1nc(N)ncc1C#N)c1cc2cccc(-c3ccnnc3)c2c(=O)n1-c1cccc(F)c1`, the figures for the pIC50 on PIK3CD (Human), on PIK3CG (human) and against PIK3CA (human) were more than 7.00, 6.00 to 7.00 and less than 5.00, respectively.
For `C[C@H](Nc1nc(N)ncc1C#N)c1cc2cccc(-c3cncc(O)c3)c2c(=O)n1-c1ccccc1`, the pIC50 against PIK3CD (Human), against PIK3CG (human) and against PIK3CA (human) was more than 7.00 throughout.
For the molecule `Cc1cccc(-c2cccc3cc([C@H](C)Nc4nc(N)ncc4C#N)n(-c4ccccc4)c(=O)c23)c1`, the pIC50 against PIK3CD (Human) is more than 7.00; against PIK3CG (human), more than 7.00; at PIK3CA (human) it was 6.00 to 7.00.
On to `C[C@H](Nc1nc(N)ncc1C#N)c1cc2cccc(Cl)c2c(=O)n1-c1ccc(OC(F)(F)F)cc1`, for which the pIC50 is 6.00 to 7.00 at PIK3CD (Human), 6.00 to 7.00 against PIK3CG (human) and less than 5.00 against PIK3CA (human).
On to `COc1cccc(-c2cccc3cc([C@H](C)Nc4nc(N)ncc4C#N)n(-c4ccccc4)c(=O)c23)n1`, for which the values for the pIC50 on PIK3CD (Human), at PIK3CG (human) and at PIK3CA (human) were more than 7.00, more than 7.00 and less than 5.00, respectively.
For `C[C@H](Nc1nc(N)ncc1C#N)c1cc2cccc(-c3cccc(N(C)C)c3)c2c(=O)n1-c1ccccc1`, the results for the negative logarithm of the IC50 (pIC50) on PIK3CD (Human), against PIK3CG (human) and against PIK3CA (human) were more than 7.00, more than 7.00 and 6.00 to 7.00, respectively.
Consider `C[C@H](Nc1nc(N)ncc1-c1cccs1)c1cc2cccc(Cl)c2c(=O)n1-c1ccccc1`, for which the pIC50 at PIK3CD (Human) is more than 7.00; against PIK3CG (human), more than 7.00; at PIK3CA (human), less than 5.00.
Turning to `C[C@H](Nc1nc(N)ncc1-c1ccccn1)c1cc2cccc(Cl)c2c(=O)n1-c1ccccc1`, the pIC50 on PIK3CD (Human) is 6.00 to 7.00; at PIK3CG (human), more than 7.00; against PIK3CA (human), less than 5.00.
Turning to `COc1cc(-c2cccc3cc([C@H](C)Nc4nc(N)ncc4-c4cnc(OC)s4)n(-c4ccccc4)c(=O)c23)ccn1`, the figures for the pIC50 against PIK3CD (Human), at PIK3CG (human) and against PIK3CA (human) were more than 7.00, more than 7.00 and 6.00 to 7.00, respectively.
Turning to `COc1cc(-c2cccc3cc([C@H](C)Nc4nc(N)ncc4C#N)n(-c4cccc(F)c4)c(=O)c23)ccn1`, the pIC50 on PIK3CD (Human) was more than 7.00; at PIK3CG (human) it was more than 7.00; against PIK3CA (human) it was 6.00 to 7.00.
With `Cc1cccc2cc([C@H](C)Nc3nc(N)ncc3C(F)(F)F)n(-c3cccc(F)c3)c(=O)c12`, the pIC50 is more than 7.00 at PIK3CD (Human), more than 7.00 against PIK3CG (human) and less than 5.00 against PIK3CA (human).
As to `C[C@H](Nc1nc(N)ncc1C#N)c1cc2cccc(Cl)c2c(=O)n1Cc1ccccc1`, the values for the pIC50 at PIK3CD (Human), against PIK3CG (human) and at PIK3CA (human) were more than 7.00, 6.00 to 7.00 and less than 5.00, respectively.
For the molecule `C[C@H](Nc1nc(N)ncc1C#N)c1cc2cccc(-c3ccc(=O)n(C4CCCC4)c3)c2c(=O)n1-c1ccccc1`, the results for the pIC50 against PIK3CD (Human), against PIK3CG (human) and against PIK3CA (human) were more than 7.00, more than 7.00 and 6.00 to 7.00, respectively.
As for `COc1cc(-c2cccc3cc([C@H](C)Nc4nc(N)ncc4-c4cnc(C)s4)n(-c4ccccc4)c(=O)c23)ccn1`, the pIC50 against PIK3CD (Human) was more than 7.00; at PIK3CG (human), more than 7.00; against PIK3CA (human) it was 6.00 to 7.00.
With `C[C@H](Nc1nc(N)ncc1C#N)c1cc2cccc(-c3ccc(=O)n(C4CCOCC4)c3)c2c(=O)n1-c1ccccc1`, the pIC50 on PIK3CD (Human) is more than 7.00; against PIK3CG (human) it was more than 7.00; at PIK3CA (human), 6.00 to 7.00.
At PIK3CB (Human), `COc1cc(-c2cccc3cc([C@H](C)N)n(-c4ccccc4)c(=O)c23)cnc1C` gave a pIC50 of 6.00 to 7.00.
`Cc1cc(-c2cccc3cc([C@H](C)Nc4nc(N)ncc4C#N)n(-c4ccccc4)c(=O)c23)ccn1`: the pIC50 at PIK3CD (Human) is more than 7.00; against PIK3CG (human), more than 7.00; on PIK3CA (human), 6.00 to 7.00.
